In US11786503B2, “Pharmaceutical compositions and methods for countering chemotherapy induced cardiotoxicity” (Auransa Inc., priority 2016, dated 2023):
Where two headings read alike, the source gives them in different places.

Legend:
TOPOIIα = target: T1, TOPOIIα (Homo sapiens, UniProt P11388); test: kDNA decatenation assay, TOPOIIα; type: biochemical; settings: for TOPOIIα inhibition, in words: decatenation assay;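 on all read-outs here: kDNA incubated with one unit of TOPOIIα at 37 °C for 30 min, decatenated product resolved on 1% agarose gel, inhibition from relative band intensity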
T1 construct: purchased Inspiralis
T1 sequence (P11388 whole entry): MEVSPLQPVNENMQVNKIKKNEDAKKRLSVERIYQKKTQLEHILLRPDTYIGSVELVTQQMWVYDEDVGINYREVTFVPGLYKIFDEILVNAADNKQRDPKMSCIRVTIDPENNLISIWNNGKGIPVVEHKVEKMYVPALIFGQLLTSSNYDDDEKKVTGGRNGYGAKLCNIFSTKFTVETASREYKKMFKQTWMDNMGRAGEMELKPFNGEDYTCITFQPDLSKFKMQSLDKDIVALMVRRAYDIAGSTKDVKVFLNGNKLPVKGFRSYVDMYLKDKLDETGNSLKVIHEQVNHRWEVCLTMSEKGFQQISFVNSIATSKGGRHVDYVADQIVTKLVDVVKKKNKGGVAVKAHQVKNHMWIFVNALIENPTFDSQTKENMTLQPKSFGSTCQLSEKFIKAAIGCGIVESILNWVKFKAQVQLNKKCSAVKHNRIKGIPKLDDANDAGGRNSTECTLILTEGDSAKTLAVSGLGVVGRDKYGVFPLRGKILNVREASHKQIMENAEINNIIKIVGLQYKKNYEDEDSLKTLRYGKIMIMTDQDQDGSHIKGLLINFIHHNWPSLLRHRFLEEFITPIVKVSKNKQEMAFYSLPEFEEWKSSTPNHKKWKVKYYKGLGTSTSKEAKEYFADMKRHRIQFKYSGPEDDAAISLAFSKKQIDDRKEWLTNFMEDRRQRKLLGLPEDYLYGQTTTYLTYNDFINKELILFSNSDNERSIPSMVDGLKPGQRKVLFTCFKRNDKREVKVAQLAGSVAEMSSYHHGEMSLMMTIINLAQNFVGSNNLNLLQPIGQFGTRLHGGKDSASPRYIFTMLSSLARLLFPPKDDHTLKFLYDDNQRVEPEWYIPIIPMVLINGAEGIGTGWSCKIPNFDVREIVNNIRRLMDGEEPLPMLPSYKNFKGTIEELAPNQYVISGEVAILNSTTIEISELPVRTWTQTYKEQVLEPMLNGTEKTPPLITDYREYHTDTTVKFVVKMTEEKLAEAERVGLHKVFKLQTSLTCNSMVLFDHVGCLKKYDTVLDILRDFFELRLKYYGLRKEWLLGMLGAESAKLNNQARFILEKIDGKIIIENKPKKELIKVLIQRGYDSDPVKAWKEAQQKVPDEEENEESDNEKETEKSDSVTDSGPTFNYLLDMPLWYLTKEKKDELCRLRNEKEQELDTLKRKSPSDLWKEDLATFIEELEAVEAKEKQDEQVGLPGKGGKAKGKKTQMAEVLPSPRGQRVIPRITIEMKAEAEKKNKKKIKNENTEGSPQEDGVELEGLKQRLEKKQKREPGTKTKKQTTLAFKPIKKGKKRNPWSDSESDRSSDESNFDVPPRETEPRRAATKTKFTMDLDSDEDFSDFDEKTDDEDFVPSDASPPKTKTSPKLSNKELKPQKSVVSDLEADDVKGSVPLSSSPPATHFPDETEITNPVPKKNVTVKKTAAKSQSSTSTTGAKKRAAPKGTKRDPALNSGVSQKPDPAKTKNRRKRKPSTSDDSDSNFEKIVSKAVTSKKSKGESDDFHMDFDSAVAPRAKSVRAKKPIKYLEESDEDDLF

TOPOIIβ = target: T2, TOPOIIβ (Homo sapiens, UniProt Q02880); test: kDNA decatenation assay, TOPOIIβ; type: biochemical; settings: for TOPOIIβ inhibition, in words: decatenation assay;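 on all read-outs here: kinetoplast DNA incubated with one unit of TOPOIIβ at 37 °C for 30 min, decatenated product resolved on 1% agarose gel, inhibition scored from relative band intensity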
T2 construct: purchased Inspiralis
T2 sequence (Q02880 whole entry): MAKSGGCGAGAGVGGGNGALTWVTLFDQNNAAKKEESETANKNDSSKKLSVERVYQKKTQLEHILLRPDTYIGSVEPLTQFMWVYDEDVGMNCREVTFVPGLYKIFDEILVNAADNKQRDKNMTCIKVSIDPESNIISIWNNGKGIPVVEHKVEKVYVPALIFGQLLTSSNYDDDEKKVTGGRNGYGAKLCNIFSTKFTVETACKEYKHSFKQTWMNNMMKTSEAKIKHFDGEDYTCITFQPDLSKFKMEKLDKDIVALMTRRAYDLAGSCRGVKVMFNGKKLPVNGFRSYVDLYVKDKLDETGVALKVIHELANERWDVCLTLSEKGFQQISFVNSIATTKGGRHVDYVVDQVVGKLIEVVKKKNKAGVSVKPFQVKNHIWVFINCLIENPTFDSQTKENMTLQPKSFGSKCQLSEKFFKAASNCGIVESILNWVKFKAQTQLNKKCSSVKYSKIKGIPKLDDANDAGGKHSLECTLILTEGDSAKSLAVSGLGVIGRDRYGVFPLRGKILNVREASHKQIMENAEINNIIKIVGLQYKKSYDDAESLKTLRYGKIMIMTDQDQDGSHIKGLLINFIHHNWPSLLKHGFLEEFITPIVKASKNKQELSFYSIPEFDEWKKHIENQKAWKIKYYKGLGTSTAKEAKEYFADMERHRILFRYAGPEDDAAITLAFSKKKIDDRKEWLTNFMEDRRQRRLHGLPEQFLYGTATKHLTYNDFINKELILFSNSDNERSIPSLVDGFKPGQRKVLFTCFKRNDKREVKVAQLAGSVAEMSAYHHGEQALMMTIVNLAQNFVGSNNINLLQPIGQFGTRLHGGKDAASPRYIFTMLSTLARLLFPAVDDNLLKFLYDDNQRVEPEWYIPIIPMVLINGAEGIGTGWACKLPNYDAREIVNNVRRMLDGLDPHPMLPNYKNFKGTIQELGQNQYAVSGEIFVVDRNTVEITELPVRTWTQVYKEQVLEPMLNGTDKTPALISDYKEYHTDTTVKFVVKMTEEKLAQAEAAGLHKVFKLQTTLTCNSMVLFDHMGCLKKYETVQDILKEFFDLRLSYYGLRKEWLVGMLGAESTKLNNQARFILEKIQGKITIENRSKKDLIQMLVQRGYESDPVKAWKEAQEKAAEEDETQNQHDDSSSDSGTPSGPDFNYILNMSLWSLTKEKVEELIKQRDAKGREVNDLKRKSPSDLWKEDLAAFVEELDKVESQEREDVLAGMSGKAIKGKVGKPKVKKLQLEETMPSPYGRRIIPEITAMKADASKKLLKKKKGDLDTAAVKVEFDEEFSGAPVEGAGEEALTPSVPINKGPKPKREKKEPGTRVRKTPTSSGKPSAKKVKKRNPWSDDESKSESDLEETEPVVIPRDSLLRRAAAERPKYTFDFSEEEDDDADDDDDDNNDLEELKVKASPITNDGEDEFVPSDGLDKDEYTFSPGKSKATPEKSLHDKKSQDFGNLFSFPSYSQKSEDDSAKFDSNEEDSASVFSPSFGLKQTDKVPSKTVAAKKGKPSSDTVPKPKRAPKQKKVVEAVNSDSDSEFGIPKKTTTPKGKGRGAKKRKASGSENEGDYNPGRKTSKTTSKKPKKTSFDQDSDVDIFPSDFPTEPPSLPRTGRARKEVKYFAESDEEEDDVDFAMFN

[1] = tested on: Doxorubicin treated human iPSC-derived cardiomyocytes; test: iPSC-CM protection by myricetin analogs (Table 1); type: cell-based; settings: for cardioprotection, in words: Table 1; for Emax: read-out: iPSC-CM protection Max Effect (%)
cardiomyocytes = test: cytotoxicity of myricetin analogs to cardiomyocytes (Table 1, Toxicity); settings: for Toxicity: * = cytotoxicity at 100 μM
[2] = tested on: cardiomyocytes differentiated from induced pluripotent stem cells; test: long term toxicity on electrophysiology, active electrodes (Example 24); type: cell-based; settings: various concentrations, at least 5 days
Experimental: Samples were either mock-treated with 0.1% DMSO, or treated with various concentrations of the indicated drug. Following treatment, the percentage of active electrodes in each sample was measured for at least 5 days. Percentage of active electrodes was quantified and graphed in a time course.

A549 cells = test: doxorubicin-mediated death of lung cancer cells, CellTiter-Glo (Example 22); type: cell-based; settings: co-treated with increasing concentrations of doxorubicin, 72 hours
Experimental: A549 cells (lung cancer) were cultured for 1 day before performing experiments. […] XLFit was used for curve fitting.

MDA-MB-231 cells = settings: co-treated with increasing concentrations of doxorubicin, 72 hours
[3] = tested on: Human iPSC-derived cardiomyocytes; test: cells; type: cell-based; settings: Cardiomyocyte, 0.5 μM of Doxorubicin, 72 hours, read-out: EC50 for rescue from DOX-induced cell death
Experimental: To measure the rescue rates from the DOX-induced cell death in cardiomyocytes, the protective effect of myricetin was directly compared with that of dexraxozane (DEX; standard of care). Human iPSC-derived cardiomyocytes were treated with 0.5 μM of Doxorubicin and increasing concentrations of myricetin (MYR, circle) or dexraxozane (DEX, square). […] Cells were imaged using INCell Analyzer2200 (GE). […] (n=3).
Next, the ability of MYR to confer cardioprotection was directly compared with that of DHM as these two compounds display distinctive property in their structures and TOPOI inhibition activity. […] Human iPSC-derived cardiomyocytes were treated with 0.5 μM of Doxorubicin and increasing concentrations of myricetin (MYR, circle) or dihydromyricetin (DHM, triangle).

[4] = tested on: Cardiomyocytes (human iPSC-derived); test: doxorubicin-induced apoptosis, CellEvent dye, 3 days (Example 4); type: cell-based; settings: Cardiomyocyte, 72 h, co-treated with 1 μM of doxorubicin, read-out: IC50 for protective effects against apoptosis
Experimental: Cardiomyocytes were prepared as described above. […] Following treatment, the samples were incubated with a CellEvent dye to indicate apoptosis-positive cells, and a second dye to identify cell nuclei.

[5] = tested on: Human iPSC-derived cardiomyocytes; test: DOX-induced DNA double strand break, γH2AX immunostaining; type: cell-based; settings: Homo sapiens, Cardiomyocyte, read-out: IC50, concentration at which DOX-induced double strand break was reduced to 50%; 0.5 μM of doxorubicin, 48 hours
[6] = tested on: cardiomyocytes differentiated from induced pluripotent stem cells; test: acute toxicity on electrophysiology, MEA beat period and field potential duration (Example 23); type: cell-based; settings: lower drug concentration, at least 20 minutes
Experimental: Samples were either mock-treated with 0.1% DMSO, or treated with increasing concentrations of the indicated drug for at least 20 minutes. Cardiomyocytes were treated with the hERG potassium channel blocker E4031 as a control. Following treatment, the beat period and field potential duration (FPD) were measured in each sample using the MEA.

[7] = Homo sapiens, iPSC-CM, read-out: iPSC-CM protection EC50
[8] = even at extreme concentrations (>200 μM)

COc1cc(-c2oc3cc(O)cc(O)c3c(=O)c2O)cc(O)c1O [3′-O-methylmyricetin]
TOPOIIα inhibition, in words (TOPOIIα): failed to inhibit | TOPOIIβ inhibition, in words (TOPOIIβ): failed to inhibit | cardioprotection, in words [1]: conferred cardioprotection | EC50 ([1]; approximate, read-out: EC50 for cardioprotection): ~59 µM

COc1cc(-c2oc3cc(O)cc(O)c3c(=O)c2O)cc(OC)c1OC [3′,4′,5′-O-trimethylmyricetin]
TOPOIIα inhibition, in words (TOPOIIα): entirely failed to display cardioprotection or TOPOII inhibition | TOPOIIβ inhibition, in words (TOPOIIβ): entirely failed to display cardioprotection or TOPOII inhibition | cardioprotection, in words [1]: entirely failed to display cardioprotection or TOPOII inhibition

O=c1cc(-c2cc(O)c(O)c(O)c2)oc2cc(O)cc(O)c12 [Compound 3, 5,7,3′,4′,5′-pentahydroxyflavone]
TOPOIIα inhibition, in words (TOPOIIα): displayed cardioprotection and TOPOII inhibition | TOPOIIβ inhibition, in words (TOPOIIβ): displayed cardioprotection and TOPOII inhibition | EC50 [1, 7]: 17.2 µM | Emax ([1]; Homo sapiens, iPSC-CM): 56% | cardioprotection, in words [1]: displayed cardioprotection | toxic effects at concentrations less than 100 μM (cardiomyocytes; Table 1): some toxic effects | cytotoxicity, in words (cardiomyocytes; at 100 μM where stated, Table 1): low level of cytotoxicity

Nc1ccc(O)c(C(=O)O)c1 [mesalamine]
decrease in the number of active electrodes relative to the mock-treated sample [2]: no observable decrease | difference in the percentage of cell death vs doxorubicin without protective agent (A549 cells): no significant difference | difference in the percentage of cell death vs doxorubicin without protective agent (MDA-MB-231 cells): no significant difference

O=C1c2c(O)cc(O)cc2O[C@H](c2cc(O)c(O)c(O)c2)[C@H]1O [dihydromyricetin]
EC50 [3]: 14 µM | TOPOIIα enzymatic activity inhibition (TOPOIIα; [8]): did not inhibit | IC50 [4]: 40.5 µM | TOPOIIβ enzymatic activity inhibition (TOPOIIβ; [8]): did not inhibit | IC50 [5]: 11.3 µM

COc1cc(-c2oc3cc(O)cc(O)c3c(=O)c2O)cc(OC)c1O [3′,5′-O-dimethylmyricetin]
TOPOIIα inhibition, in words (TOPOIIα): neither cardioprotection nor TOPOIIα and TOPOIIβ inhibition | TOPOIIβ inhibition, in words (TOPOIIβ): neither cardioprotection nor TOPOIIα and TOPOIIβ inhibition | cardioprotection, in words [1]: neither cardioprotection nor TOPOIIα and TOPOIIβ inhibition

O=c1cc(-c2cc(O)c(O)c(O)c2)oc2ccccc12 [Compound 8, 3′,4′,5′-trihydroxyflavone]
TOPIIα Inhibition (TOPOIIα): − | TOPIIβ Inhibition (TOPOIIβ): − | Rescue [1]: + | EC50 [1, 7]: 43 µM | Emax ([1]; Homo sapiens, iPSC-CM): 64% | Toxicity (cardiomyocytes): −

Nc1c(Br)cc(Br)cc1CN[C@H]1CC[C@H](O)CC1 [ambroxol]
decrease in the number of active electrodes relative to the mock-treated sample [2]: no observable decrease | difference in beat period or field potential duration vs control samples [6]: no appreciable difference | difference in the percentage of cell death vs doxorubicin without protective agent (A549 cells): no significant difference | difference in the percentage of cell death vs doxorubicin without protective agent (MDA-MB-231 cells): no significant difference

O=c1cc(-c2ccc(O)c(O)c2)oc2cc(O)ccc12 [Compound 11, 7,3′,4′-trihydroxyflavone]
TOPIIα Inhibition (TOPOIIα): − | TOPIIβ Inhibition (TOPOIIβ): − | Rescue [1]: + | EC50 [1, 7]: 6.25 µM | Emax ([1]; Homo sapiens, iPSC-CM): 24%

O=c1c(O)c(-c2cc(O)c(O)c(O)c2)oc2cc(O)ccc12 [Compound 2, 3,7,3′,4′,5′-pentahydroxyflavone]
TOPOIIα inhibition, in words (TOPOIIα): high level of inhibition | TOPOIIβ inhibition, in words (TOPOIIβ): high level of inhibition | EC50 ([1]; Homo sapiens, Cardiomyocyte, approximate, read-out: EC50 for cardioprotection): 10 to 20 µM | EC50 [1, 7]: 12.6 µM | Emax ([1]; Homo sapiens, iPSC-CM): 64% | Toxicity (cardiomyocytes): −

CC(=O)N[C@@H](CS)C(=O)O [N-acetyl cysteine]
difference in beat period or field potential duration vs control samples [6]: no appreciable difference | difference in the percentage of cell death vs doxorubicin without protective agent (A549 cells): no significant difference | difference in the percentage of cell death vs doxorubicin without protective agent (MDA-MB-231 cells): no significant difference

O=c1cc(-c2ccc(O)c(O)c2)oc2cc(O)cc(O)c12 [Compound 9, 5,7,3′,4′-tetrahydroxyflavone]
TOPIIα Inhibition (TOPOIIα): − | TOPIIβ Inhibition (TOPOIIβ): − | EC50 [1, 7]: 9.67 µM | Emax ([1]; Homo sapiens, iPSC-CM): 62%
